Measured values published in patent US20020115724A1, “Methods and agents for inhibiting protein aging” (priority 1985, published 2002).

Experiments:
mice = conditions: subcutaneously; cited from earlier work
rats = conditions: subcutaneously, rats; cited from earlier work
gelatin (collagen) = test: Protein trapping: radioiodinated albumin bound to gelatin (collagen) agarose beads with glucose-6-phosphate; assay type: biochemical; conditions: agent 200 mN, 400 mN glucose-6-phosphate, two weeks, 37° C.
Description: To more precisely measure the effect of the agents on the inhibition of protein crosslinking, an assay system was devised to measure the extent of in vitro binding of a soluble protein to an insoluble protein. This assay system mimics the events which occur in tissues in which serum proteins become bound to proteins in extravascular matrix and which lead to accumulation of protein and narrowing of vessel lumina in several other tissues. These events in vivo give rise to kidney disease and atherosclerotic disease, and lead to the pathologies associated with diabetes and aging.
To measure protein trapping (i.e., binding or accumulation), gelatin (collagen) was coupled to activated agarose beads (Affigel 10, Bio-Red Laboratories) by routine methods. After coupling, all remaining active sites on the beads were quenched by reaction with glycine ethyl ester.
The beads were incubated for two weeks with bovine serum albumin and 400 mN glucose-6-phosphate, a more reactive form of glucose which forms early glycosylation products with proteins more rapidly than does glucose. […] The bovine serum albumin was radioiodinated so that the amount which became bound to the beads could be measured. […]
After a two-week incubation of the reaction mixtures at 37° C., the beads were washed extensively with chaotropic agents and the covalently bound radioactivity was determined. […]

bovine serum albumin = test: Formation of fluorescent advanced glycosylation end products in albumin incubated with glucose; assay type: biochemical; conditions: 200 mM agent, 6 mg/mL BSA, 200 mM glucose, 37° C., two-week incubation, vs control
Experimental: To measure the ability of certain of the agents of the present invention to inhibit the production of advanced glycosylated end products in vitro, albumin and glucose were incubated together for two weeks in the presence of several test agents. Samples were taken at regular intervals for analysis. Advanced glycosylation end products were measured as appearance of fluorescent compounds, and early glycosylation products were measured by incorporation of radiolabeled glucose into albumin. Reaction conditions were as follows. […]
After the incubation periods, samples were treated as follows. After dialysis to remove all unbound glucose, the amount of protein present was measured with a standard dye-binding assay. The amount of glucose which became bound to the albumin, a measure of early glycosylation products, was determined by precipitating albumin with trichloroacetic acid and measuring the radioactivity of the bound glucose using scintillation counting.
The results of this experiment are expressed graphically in FIG. 1. For each sample, incorporation of radiolabeled glucose is indicated by the solid portion of the bar, and fluorescence is indicated in the open portion of the bar. All values are expressed as per milligram of albumin. […]

[1] = tested on: demineralized bone matrix particles; test: Bone differentiation of AGE-modified demineralized bone matrix implanted in rats; assay type: in vivo, rat; conditions: matrix incubated with glycolaldehyde
Experimental: In order to assess the possible role of hyperglycemia-induced matrix modifications in this process, demineralized bone matrix particles from 35 week old normal Long-Evans rats were prepared. Matrix is incubated in phosphate buffered saline alone (PBS), PBS containing various sugar precursors of AGE (PBS−G), and PBS with sugars plus the AGE-inhibitor aminoguanidine (PBS−G+AG). After incubation, the matrix is washed and implanted subcutaneously in normal rats. Twelve days after implantation, ^45CaCl2 is injected to determine implant mineralization, and alkaline phosphatase activity is measured to assess osteoblast function. Duplicate specimens are fixed, embedded and stained for histologic evaluation.

In the case of `N=C(N)NN` [aminoguanidine base, aminoguanidine], the LD50 (mice) is listed as 963 mg/kg and the LD50 (rats) is listed as 1258 mg/kg.
For `NCCCC[C@H](N)C(=O)O` [Lysine, lysine], the “amount of protein trapping (radiolabeled albumin bound to collagen beads)” value (gelatin (collagen)) was “reduced the amount of protein trapping to an extent similar to that of aminoguanidine” and the “formation of fluorescent compounds (advanced glycosylation end products)” value (bovine serum albumin) was “appeared to cause an increase in fluorescent compound formation”.
In the case of `O=CCO` [glycolaldehyde, reference compound], the “matrix AGE content (by specific fluorescence), increase” value [1] is reported as “over twofold” and the “inhibition of bone differentiation (45CaCl2 uptake, alk phos, histology)” value ([1]; implanted subcutaneously, 12 days) is reported as “more than 90%”.
